The values that follow come from ChEMBL document CHEMBL1201862, “PubChem BioAssay data set” (2004).

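Method: 48-hour compound exposure of cells in 96-well plates, five concentrations, linear interpolation of endpoints. GI50: concentration for 50% inhibition of growth.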 Activity calls are given as the source filed them. Rule as the data show it: active = GI50 up to about 1.1 µM and inactive = higher.

Among the test systems are KM-20L2; M19-MEL; SNB-78; RXF 631; HOP-18; DMS-114; DLD-1; LXFL 529; XF498.
Holding throughout (assay): DTP human tumour cell line panel, 48 h

Usually GI50 stands for the concentration giving 50% growth inhibition. Regarding `C/C(=N\N=C(\N)S)c1ccc(Oc2ccccc2)cc1`, the GI50 was 10.7 µM (inactive) in the experiment on KM-20L2; 15.1 µM (inactive) in the experiment on M19-MEL; 14.2 µM (inactive) with SNB-78; 13.8 µM (inactive) with RXF 631; 14.1 µM (inactive) in the experiment with HOP-18; 3.03 µM (inactive) in the experiment on DMS-114. Besides, the figures for the GI50 with DLD-1 and in the experiment with LXFL 529 were 3.44 µM (inactive) and 3.96 µM (inactive), respectively.

On to `O=c1ncc(F)cn1C1OC(CO)C(O)C1O` (stereo not given), for which the GI50 is > 32.9 µM (inactive) in the experiment with KM-20L2; > 24.6 µM (inactive) with M19-MEL; > 29.7 µM (inactive) with SNB-78; 41.6 µM (inactive) with RXF 631; > 31.5 µM (inactive) in the experiment with HOP-18; > 21.2 µM (inactive) in the experiment with DMS-114. Further, the GI50 was > 100 µM (inactive) in the experiment on XF498 and > 35.8 µM (inactive) in the experiment on DLD-1.

As for `O=C1/C(=C/c2ccccc2)CN(C(=O)/C=C/c2ccccc2)C/C1=C\c1ccccc1`, the GI50 was 12.8 µM (inactive) in the experiment with KM-20L2; 5.22 µM (inactive) in the experiment on M19-MEL; 22 µM (inactive) in the experiment with SNB-78; 27.1 µM (inactive) with RXF 631; 33.7 µM (inactive) with HOP-18; 18.6 µM (inactive) in the experiment on XF498. The GI50 in the experiment on DLD-1 was 4.14 µM (inactive); with LXFL 529, 8.05 µM (inactive).

Take `O=C(C#Cc1ccccc1)Nc1ccccc1CC(c1c[nH]c2ccccc12)c1c[nH]c2ccccc12`: the GI50 with M19-MEL is 16.4 µM (inactive); in the experiment on SNB-78 it was 11.5 µM (inactive); in the experiment with RXF 631 it was 21.3 µM (inactive); in the experiment on XF498, 29.4 µM (inactive); in the experiment on DLD-1, 17 µM (inactive); in the experiment on LXFL 529, 6.35 µM (inactive).

On to `O=C1c2cccc3cc([N+](=O)[O-])cc(c23)C(=O)N1CCCN1CCN(CCCN2C(=O)c3cccc4cc([N+](=O)[O-])cc(c34)C2=O)CC1`, for which the GI50 with KM-20L2 is 0.45 µM (active); in the experiment on M19-MEL it was 0.0931 µM (active); in the experiment with SNB-78, 0.303 µM (active); in the experiment on RXF 631 it was 0.0344 µM (active); in the experiment with HOP-18, 1.77 µM (inactive); with XF498, 0.0966 µM (active). The results for the 50% growth inhibitory concentration (GI50) with DLD-1 and in the experiment with LXFL 529 were 0.0453 µM (active) and 0.0349 µM (active), respectively.

In the case of `CC(N)C(=O)c1ccc(O)cc1` (stereo not given), the GI50 in the experiment with KM-20L2, in the experiment with SNB-78, with RXF 631, with HOP-18, in the experiment with DMS-114 and in the experiment with DLD-1 was > 100 µM (inactive) in each case. The GI50 with LXFL 529 was > 100 µM (inactive).

On to `O=C1CCC(=O)C12CCc1cccc(O)c12`, for which the GI50 in the experiment with KM-20L2, in the experiment on M19-MEL, in the experiment with SNB-78, in the experiment on HOP-18, with DMS-114 and in the experiment on XF498 was > 100 µM (inactive) in each case. Also, the GI50 in the experiment with DLD-1 and in the experiment with LXFL 529 was > 100 µM (inactive) in each case.

`CCCOC(=O)C1CCC(=O)N1C(=O)C(C)Cl` (stereo not given): the GI50 in the experiment with KM-20L2, with M19-MEL, with SNB-78, in the experiment on HOP-18, with DMS-114 and in the experiment on XF498 was > 100 µM (inactive) throughout. Moreover, the GI50 in the experiment with DLD-1 and with LXFL 529 was > 100 µM (inactive) throughout.

Consider `O=C(O)CNCc1c2ccccc2[n+]([O-])c2ccccc12`, for which the GI50 was 42.4 µM (inactive) in the experiment with KM-20L2; 85.7 µM (inactive) with M19-MEL; 92.3 µM (inactive) with SNB-78; 83.4 µM (inactive) in the experiment with RXF 631; 52.7 µM (inactive) in the experiment on HOP-18; 25.9 µM (inactive) with DMS-114. For the same molecule, the GI50 is 39.4 µM (inactive) in the experiment with DLD-1 and 27.7 µM (inactive) in the experiment with LXFL 529.

Consider `COc1ccc(OC)c(/C=C2\CCc3ccccc3C2=O)c1`, for which the GI50 is 2.9 µM (inactive) with KM-20L2; 3.72 µM (inactive) in the experiment on M19-MEL; 4.85 µM (inactive) in the experiment with HOP-18; 1.92 µM (inactive) in the experiment on DMS-114; 1.24 µM (inactive) with XF498; 5.36 µM (inactive) in the experiment with DLD-1. Besides, the GI50 in the experiment on LXFL 529 is 6.05 µM (inactive).

With `C[C@]12CC[C@H](O)CC1=CC[C@@H]1C2CC[C@]2(C)C(=O)N(N)C(=O)CC12` (stereo not given in full), the GI50 with KM-20L2, in the experiment on M19-MEL, with SNB-78, in the experiment with RXF 631, in the experiment on HOP-18 and in the experiment with XF498 was > 100 µM (inactive) in each case. Moreover, the GI50 with DLD-1 and in the experiment with LXFL 529 was > 100 µM (inactive) each time.

`COc1ccc(/C(Cl)=C/c2cc(OC)ccc2OC)cc1`: the GI50 in the experiment with KM-20L2 is 93.3 µM (inactive); with M19-MEL, 80 µM (inactive); with SNB-78 it was 79.6 µM (inactive); in the experiment with HOP-18, > 100 µM (inactive); with DMS-114, 42.3 µM (inactive); with XF498, 71.3 µM (inactive). Moreover, the GI50 is 79.4 µM (inactive) with DLD-1 and 72.1 µM (inactive) in the experiment with LXFL 529.

Regarding `COc1cc2c3c(c1OCc1ccccc1)NCCC3NCC2` (stereo not given), the GI50 with KM-20L2, in the experiment on M19-MEL, with SNB-78, in the experiment on RXF 631, in the experiment on DMS-114 and in the experiment with XF498 was > 100 µM (inactive) in each case. Moreover, the GI50 in the experiment on DLD-1 and in the experiment on LXFL 529 was > 100 µM (inactive) in each case.

As for `CCN(CC)c1ccc(C2N3CCCCC3[C@@H]3c4[nH]c5ccccc5c4CCN23)cc1` (stereo not given in full), the GI50 in the experiment on KM-20L2 is 29.3 µM (inactive); in the experiment on M19-MEL, 23.7 µM (inactive); with SNB-78, 22.1 µM (inactive); with HOP-18, > 100 µM (inactive); with DMS-114, 14 µM (inactive); with XF498, 17.1 µM (inactive). For the same molecule, the GI50 in the experiment on DLD-1 is 26 µM (inactive); in the experiment on LXFL 529, 21.3 µM (inactive).

On to `C[N+](C)(C)CC(=O)N/N=C(\C(=O)NC1=C(Cl)C(=O)c2ccccc2C1=O)C(C#N)c1nc(-c2ccc([N+](=O)[O-])cc2)cs1` (stereo not given), for which the GI50 with KM-20L2 was 14 µM (inactive); with M19-MEL, 0.889 µM (active); with SNB-78 it was 11.3 µM (inactive); with HOP-18, 6.4 µM (inactive); in the experiment on DMS-114, 3.26 µM (inactive); in the experiment with XF498, 9.46 µM (inactive). Moreover, the GI50 with DLD-1 is 11.3 µM (inactive); in the experiment on LXFL 529 it was 7.91 µM (inactive).

On to `O=C1/C(=C/c2ccc3c(c2)OCO3)CCC1CN1CCOCC1` (stereo not given), for which the GI50 in the experiment on KM-20L2 is 14.8 µM (inactive); with M19-MEL it was 4.53 µM (inactive); in the experiment with SNB-78, 9.66 µM (inactive); in the experiment with RXF 631, 15.8 µM (inactive); in the experiment on HOP-18 it was 17.3 µM (inactive); in the experiment on DMS-114, 5.83 µM (inactive). For the same molecule, the figures for the GI50 with DLD-1 and in the experiment on LXFL 529 were 2.39 µM (inactive) and 2.65 µM (inactive), respectively.

As for `O[C@]12CCCC[C@H]1CCC2`, the GI50 in the experiment on M19-MEL, with SNB-78, in the experiment on RXF 631, with DMS-114, with XF498 and with LXFL 529 was > 100 µM (inactive) throughout.

For `CC1=C(N(C)C)C(=O)c2nc3n(c2C1=O)CCC3OC(N)=O` (stereo not given), the GI50 with KM-20L2 is 20.2 µM (inactive); in the experiment on M19-MEL, 1.7 µM (inactive); in the experiment with SNB-78, 23 µM (inactive); in the experiment on HOP-18 it was 17.7 µM (inactive); with DMS-114, 16.1 µM (inactive); with XF498 it was 23.9 µM (inactive). Besides, in the experiment on DLD-1, the GI50 was 16.2 µM (inactive).

As to `Cc1c(O)c(=O)ccn1CCN`, the GI50 in the experiment on KM-20L2, with M19-MEL, in the experiment on SNB-78, in the experiment on RXF 631, in the experiment on HOP-18 and in the experiment on DMS-114 was > 100 µM (inactive) in each case. For the same molecule, the GI50 in the experiment on DLD-1 and with LXFL 529 was > 100 µM (inactive) in each case.
